Test results: patent US9427482B2, “Agents for clearing biomolecules from circulation” (KONINKLIJKE PHILIPS N.V., priority 2010, dated 2016)

Columns and labels:
LS174T xenografts = experiment: Biodistribution of ^125I-CC49-TCO 18 and ^177Lu-tetrazine 15 with one or two doses of 12 (Example 9); format: in vivo, mice
Protocol: LS174T tumor model. The human colon cancer cell line LS174T was obtained from the ATCC and maintained in Eagle's minimal essential medium (Sigma) supplemented with 10% heat inactivated fetal calf serum (Gibco), penicillin (100 U/mL), streptomycin (100 μg/mL) and […] Glutamax. Nude female Balb/C mice (20-25 g body weight, Charles River Laboratories) were inoculated subcutaneously with 5×10^6 cells in 100 μL sterile PBS.
Nude female mice (n=4) bearing LS174T xenografts (0.29±0.16 g) were injected ^125I-CC49-TCO 18 (t=0, 100 μg/100 μl per mouse) followed by one 160 μg/100 μl dose of galactose-MSA-tetrazine (12) 30 hours post mAb injection, or two 160 μg/100 μl 12 doses 30 and 48 hours post mAb injection. Two hours after the last clearing agent dose the mice were administered 8.52 μg of ^177Lu-labeled tetrazine 15 (10 equiv. with respect to mAb) and were sacrificed 3 hours post tetrazine injection. Blood was withdrawn by heart puncture and selected organs and tissues were harvested and blotted dry. The blood samples and tissues were weighed, added with 1 mL PBS and the radioactivity was counted in a gamma counter along with standards to determine the % ID/g. The differences between columns were analyzed using the two-tailed unpaired t-test (Graphpad Prism v. 5.01)

[1] = Organ residence times from mouse biodistribution data (MIRD)
Protocol: (§1) Radiation dosimetry estimates were calculated for a male human model (standard 73 Kg adult) and for a voxelized mouse model by using the mouse biodistribution data (Example 12, Tables 7 and 8) according to the MIRD methodology. Activity concentration in these organs were converted in percent injected dose (% ID) and decay corrected to the time of injection. The % ID for blood, muscle and bone were estimated from the % ID/g of tissue and assuming 6%, 42% and 11% of the body weight. Whenever possible the time activity curves were fitted by a two-phase exponential clearance function. The fitted function was then integrated analytically to yield the organ residence times (Table 9). […] The time activity curve of the tumor was fitted by a mono-exponential uptake function defined as F(t)=a0(1−exp(−a1t)).
For ^177Lu-DOTA-CC49 some radioactivity was collected in the mixture of urine and feces. […] For the pretargeted ^177Lu-tetrazine a total of 97.8% ID was excreted.

[2] = Human radiation dosimetry (OLINDA/EXM); details: human model, 73 Kg adult male
Protocol: as §1
Human radiation dosimetry (Table 10) were calculated using the above measured residence times and the OLINDA/EXM program with the following assumptions: 10% of the blood residence time was assigned to the heart content and 90% was assigned to the remainder of the body; the activity measured in the small and large intestines were assigned to the organ content but the radiation dose was assigned to the organ itself; activity in the large intestine was assigned in equal part to the upper and lower large intestines; activity in the bone was assigned in equal parts to the trabecular and […] bone components. The bladder voiding model in OLINDA/EXM was used. Residence time to the red marrow was calculated as a fraction of blood residence time (τmarrow=0.08 τblood).

[3] = Two doses of 12, 30 and 48 h post mAb

Residence time Bladder Wall [1]: 0.009 h
Residence time Blood [1]: 0.067 h
Residence time Bone [1]: 0.239 h
Residence time Brain [1]: 0.001 h
Residence time Heart Wall [1]: 0.001 h
Residence time Kidneys [1]: 0.293 h
Residence time Large Intestines [1]: 0.23 h
Residence time Liver [1]: 0.302 h
Residence time Lungs [1]: 0.031 h
Residence time Muscle [1]: 0.19 h
Residence time Ovaries [1]: 0.0034 h
Residence time Small Intestines [1]: 0.082 h
Residence time Spleen [1]: 0.023 h
Residence time Stomach [1]: 0.032 h
Residence time Tumor [1]: 3.93 h
Residence time Uterus [1]: 0.026 h
Residence time remainder of the body [1]: 1 h
Residence time Red Marrow ([1]; τmarrow=0.08 τblood): 0.0054 h
Effective Dose [2]: 0.0195 mSv/MBq
Organ Radiation dose Adrenals [2]: 0.00162 mGy/MBq
Organ Radiation dose Bladder Wall [2]: 0.104 mGy/MBq
Organ Radiation dose Brain [2]: 0.000146 mGy/MBq
Organ Radiation dose Breasts [2]: 0.0013 mGy/MBq
Organ Radiation dose Gall Bladder Wall [2]: 0.0018 mGy/MBq
Organ Radiation dose Heart Wall [2]: 0.000537 mGy/MBq
Organ Radiation dose Kidneys [2]: 0.0425 mGy/MBq
Organ Radiation dose Liver [2]: 0.0142 mGy/MBq
Organ Radiation dose Lower Large Int. [2]: 0.0363 mGy/MBq
Organ Radiation dose Lungs [2]: 0.00288 mGy/MBq
Organ Radiation dose Muscle [2]: 0.000861 mGy/MBq
Organ Radiation dose Osteogenic cells [2]: 0.00172 mGy/MBq
Organ Radiation dose Ovaries [2]: 0.0341 mGy/MBq
Organ Radiation dose Pancreas [2]: 0.00164 mGy/MBq
Organ Radiation dose Red marrow [2]: 0.00302 mGy/MBq
Organ Radiation dose Skin [2]: 0.0029 mGy/MBq
Organ Radiation dose Small Intestines [2]: 0.0101 mGy/MBq
Organ Radiation dose Spleen [2]: 0.0112 mGy/MBq
Organ Radiation dose Stomach Wall [2]: 0.00599 mGy/MBq
Organ Radiation dose Testes [2]: 0.00151 mGy/MBq
Organ Radiation dose Thymus [2]: 0.00134 mGy/MBq
Organ Radiation dose Thyroid [2]: 0.00132 mGy/MBq
Organ Radiation dose Total Body [2]: 0.00287 mGy/MBq
Organ Radiation dose Upper large Int. [2]: 0.0231 mGy/MBq
Organ Radiation dose Uterus [2]: 0.0293 mGy/MBq
SMILES: O=C([O-])CN1CCN(CC(=O)[O-])CCN(CC(=O)NCCOCCOCCOCCOCCOCCOCCOCCOCCOCCOCCOCCNC(=O)CCCC(=O)Nc2ccc(-c3nnc(-c4ccccn4)nn3)nc2)CCN(CC(=O)[O-])CC1.[177Lu+3] [^177Lu-tetrazine]
^177Lu-tetrazine T/blood (LS174T xenografts; One dose of 12, 30 h post mAb): 45.9±14.2
^177Lu-tetrazine T/bone (LS174T xenografts; One dose of 12, 30 h post mAb): 136.1 ± 68.7
^177Lu-tetrazine T/brain (LS174T xenografts; One dose of 12, 30 h post mAb): 935.9 ± 297.1
^177Lu-tetrazine T/heart (LS174T xenografts; One dose of 12, 30 h post mAb): 64.7 ± 18.0
^177Lu-tetrazine T/kidney (LS174T xenografts; One dose of 12, 30 h post mAb): 7.9 ± 3.3
^177Lu-tetrazine T/liver (LS174T xenografts; One dose of 12, 30 h post mAb): 32.4 ± 6.3
^177Lu-tetrazine T/lung (LS174T xenografts; One dose of 12, 30 h post mAb): 28.1 ± 11.8
^177Lu-tetrazine T/muscle (LS174T xenografts; One dose of 12, 30 h post mAb): 128.5 ± 83.7
^177Lu-tetrazine T/spleen (LS174T xenografts; One dose of 12, 30 h post mAb): 50.5 ± 10.9
^177Lu-tetrazine in blood (LS174T xenografts; One dose of 12, 30 h post mAb): 0.17 ± 0.06 % ID/g
^177Lu-tetrazine in bone (LS174T xenografts; One dose of 12, 30 h post mAb): 0.06 ± 0.03 % ID/g
^177Lu-tetrazine in brain (LS174T xenografts; One dose of 12, 30 h post mAb): 0.01 ± 0.00 % ID/g
^177Lu-tetrazine in heart (LS174T xenografts; One dose of 12, 30 h post mAb): 0.12 ± 0.03 % ID/g
^177Lu-tetrazine in kidney (LS174T xenografts; One dose of 12, 30 h post mAb): 1.06 ± 0.39 % ID/g
^177Lu-tetrazine in liver (LS174T xenografts; One dose of 12, 30 h post mAb): 0.23 ± 0.00 % ID/g
^177Lu-tetrazine in lung (LS174T xenografts; One dose of 12, 30 h post mAb): 0.28 ± 0.05 % ID/g
^177Lu-tetrazine in muscle (LS174T xenografts; One dose of 12, 30 h post mAb): 0.08 ± 0.04 % ID/g
^177Lu-tetrazine in spleen (LS174T xenografts; One dose of 12, 30 h post mAb): 0.15 ± 0.03 % ID/g
^177Lu-tetrazine in tumor (LS174T xenografts; One dose of 12, 30 h post mAb): 7.48 ± 1.46 % ID/g
^177Lu-tetrazine T/bone (LS174T xenografts; [3]): 123.3 ± 80.3
^177Lu-tetrazine T/brain (LS174T xenografts; [3]): 1146.7 ± 122.9
^177Lu-tetrazine T/heart (LS174T xenografts; [3]): 142.4 ± 18.5
^177Lu-tetrazine T/kidney (LS174T xenografts; [3]): 3.4 ± 0.4
^177Lu-tetrazine T/liver (LS174T xenografts; [3]): 30.8 ± 2.9
^177Lu-tetrazine T/lung (LS174T xenografts; [3]): 26.2 ± 3.9
^177Lu-tetrazine T/muscle (LS174T xenografts; [3]): 140.9 ± 67.1
^177Lu-tetrazine T/spleen (LS174T xenografts; [3]): 63.7 ± 9.2
^177Lu-tetrazine in blood (LS174T xenografts; [3]): 0.03 ± 0.00 % ID/g
^177Lu-tetrazine in bone (LS174T xenografts; [3]): 0.08 ± 0.08 % ID/g
^177Lu-tetrazine in brain (LS174T xenografts; [3]): 0.00 ± 0.00 % ID/g
^177Lu-tetrazine in heart (LS174T xenografts; [3]): 0.04 ± 0.00 % ID/g
^177Lu-tetrazine in kidney (LS174T xenografts; [3]): 1.58 ± 0.14 % ID/g
^177Lu-tetrazine in liver (LS174T xenografts; [3]): 0.18 ± 0.02 % ID/g
^177Lu-tetrazine in lung (LS174T xenografts; [3]): 0.21 ± 0.03 % ID/g
^177Lu-tetrazine in muscle (LS174T xenografts; [3]): 0.05 ± 0.03 % ID/g
^177Lu-tetrazine in spleen (LS174T xenografts; [3]): 0.09 ± 0.01 % ID/g
^177Lu-tetrazine in tumor (LS174T xenografts; [3]): 5.38 ± 0.48 % ID/g
